PMC9311798, “A Novel Class of Potent Anti-Tyrosinase Compounds with Antioxidant Activity, 2-(Substituted phenyl)-5-(trifluoromethyl)benzo[d]thiazoles: In Vitro and In Silico Insights” (Antioxidants, 2022)

Key:
mushroom tyrosinase = molecular target: T1, mushroom tyrosinase (Agaricus bisporus, UniProt C7FF04); assay: Mushroom tyrosinase inhibition assay; type: biochemical; conditions: L-tyrosine as substrate
T1 construct: purchased Sigma-Aldrich
Experimental: Mushroom tyrosinase inhibitory activity was determined as described previously, with minor modifications. L-Tyrosine was used as a substrate to determine enzyme activities. […] These dose-dependent inhibition experiments were carried out three times using three to five different concentrations of test compounds to determine IC50 values. Log–linear curves and their equations were derived from the observed percentages of inhibition.

[1] = test system: B16F10 murine melanoma cells; assay: B16F10 cell viability assay (EZ-Cytox); type: cell-based; conditions: concentrations ≤20 μM, 48 h
Experimental: B16F10 murine melanoma cells were obtained from the American Type Culture Collection (ATCC, Manassas, VA, USA). Phosphate buffer solution (PBS), Dulbecco’s modified Eagle’s medium (DMEM), streptomycin, penicillin, trypsin, and fetal bovine serum (FBS) were purchased from Gibco/Thermo Fisher Scientific (Carlsbad, CA, USA). B16F10 cells were cultured in a DMEM solution comprising 10% heat-inactivated FBS, penicillin (100 IU/mL), and streptomycin (100 µg/mL), at 37 °C in a humidified 5% CO2 atmosphere. Experiments for anti-melanogenesis activity, cell viability, and anti-tyrosinase activity were assayed on these cells in 96- or 6-well culture plates.
Cell viability assays for B16F10 were performed using the EZ-Cytox assay (EZ-3000, DoGenBio, Seoul, Korea). In brief, B16F10 cells were seeded in a 96-well plate at a density of 1 × 10^4 cells/well, and cultured at 37 °C for 24 h in a humidified 5% CO2 atmosphere. The next day, B16F10 cells were exposed to six concentrations of 1a or 1b (0, 1, 2, 5, 10, or 20 μM), and incubated under the same conditions for 48 h. Then, the EZ-Cytox solution (10 μL) was added to each well, and the cells mixed with the EZ-Cytox solution were further incubated for 2 h. At 450 nm, optical densities were measured using a microplate reader (VersaMax^TM, Molecular Devices, Sunnyvale, CA, USA).

[2] = test system: tyrosinase glycosylation in B16F10 cells; assay: Western blot of glycosylated and non-glycosylated tyrosinase; type: cell-based, murine; conditions: 2, 5, 10, 20 µM, 48 h; cytosolic fraction
Experimental: (§1) Five different concentrations of 1b (0, 2, 5, 10, and 20 µM) were exposed to B16F10 cells for 48 h, and the cells were washed with cold PBS two times, harvested, lysed, and centrifuged at 4 °C (12,000 rpm for 10 min). Cell pellets were suspended in 10 mM Tris (pH 8.0) containing 1.5 mM MgCl2, 1 mM DTT, 0.1% NP-40, and protease inhibitors (GenDEPOT), incubated on ice for 15 min, and centrifuged at 12,000× g for 15 min at 4 °C. Supernatants (cytosolic fractions) and pellets were resuspended in 10 mM Tris (pH 8.0) containing 50 mM KCl, 100 mM NaCl, and protease inhibitor, incubated on ice for 30 min, and centrifuged at 12,000× g for 15 min at 4 °C. The resultant supernatants were nuclear fractions. The protein concentrations were determined by a Bicinchoninic Acid (BCA)™ Assay Kit (Pierce, Rockford, IL, USA). The lysed protein samples were mixed in loading buffer (0.2% bromophenol blue, 12.5 mM Tris-HCl, pH 6.8, 10% 2-mercaptoethanol, and 4% SDS) at a volume ratio of 1:4, and boiled for 10 min. […] Quantification of Western blot data were analyzed by CS Analyzer 3.2 (Densitograph) image software (http://www.attokorea.co.kr, admitted on 21 May 2022).

MITF in B16F10 cells = assay: Western blot of nuclear MITF; type: cell-based, murine; conditions: nuclear fraction
Experimental: as §1

[3] = test system: TRP-1, TRP-2, and tyrosinase mRNA in B16F10 cells; assay: qRT-PCR of melanogenesis-related genes; type: cell-based, murine; conditions: 24 h; GAPDH internal control; versus untreated controls
Experimental: Total RNAs from cells were extracted using the RiboEx Total RNA solution (GeneAll Biotechnology, Seoul, Korea). Cells in 6-well plates (0.5 mL, 1 × 10^5 cells per well) were transferred to tubes, to which chloroform (0.1 mL) was added, and shaken vigorously for 30 s. Aqueous phases were transferred to fresh tubes, and an equal volume of isopropanol was added. Samples were then incubated for 15 min at 4 °C and centrifuged at 12,000× g for 15 min at 4 °C. After discarding the supernatants, RNA pellets were washed once with 0.5 mL of 75% ethanol, vortexed briefly, and centrifuged at 7500× g for 5 min at 4 °C. Pellets were dried for 10–15 min and dissolved in diethyl pyrocarbonate (DEPC)-treated water. Complementary DNA (cDNA) was synthesized from the total RNA (2 µg) using SuPrime Script RT Premix with random hexamer cDNA Synthesis Kit (GeNet Bio, Daejeon, Korea), in accordance with the manufacturers’ instructions. Quantitative qRT-PCR amplification was performed using SensiFAST^TM SYBR® No-ROX dye (Bioline, London, UK) on the CFX Connect System (Bio-Rad Laboratories, Hercules, CA, USA). The primers specific to TRP-1, TRP-2, tyrosinase, or GAPDH were purchased from Bioneer Inc. (Daejeon, Korea). Relative gene expressions were assessed using GAPDH as the internal control.

[4] = ABTS radical scavenging activity assay; conditions: 100 µM, 2 min in the dark
Experimental: At 734 nm, optical densities of the solutions were measured using a microplate reader (VersaMax^TM, Molecular Devices, Sunnyvale, CA, USA). The ABTS radical scavenging capacities of the 16 2-arylbenzothiazole derivatives were compared with trolox. All experiments were performed independently in triplicate.

T1 sequence (C7FF04 1-392 limits assumed): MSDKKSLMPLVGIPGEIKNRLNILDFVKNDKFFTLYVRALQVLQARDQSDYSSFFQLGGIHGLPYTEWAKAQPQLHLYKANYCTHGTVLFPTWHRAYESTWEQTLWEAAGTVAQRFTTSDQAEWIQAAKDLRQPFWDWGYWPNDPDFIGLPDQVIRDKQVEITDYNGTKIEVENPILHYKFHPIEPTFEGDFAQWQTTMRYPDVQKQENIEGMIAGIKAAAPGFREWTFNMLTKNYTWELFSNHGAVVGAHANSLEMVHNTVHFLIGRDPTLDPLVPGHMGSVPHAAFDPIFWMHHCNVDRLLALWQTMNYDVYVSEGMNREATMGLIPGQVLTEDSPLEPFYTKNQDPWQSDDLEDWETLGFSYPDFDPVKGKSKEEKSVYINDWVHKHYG

Oc1ccc(-c2nc3cc(C(F)(F)F)ccc3s2)c(O)c1 [Compound 1b, 4-(5-(Trifluoromethyl)benzo[d]thiazol-2-yl)benzene-1,3-diol]
IC50 (mushroom tyrosinase): 0.2 ± 0.01 µM
potency relative to kojic acid (fold more potent) (mushroom tyrosinase; IC50 versus kojic acid): 55 fold
increase of anti-tyrosinase activity relative to 1a (mushroom tyrosinase; versus 1a): 240 fold
cytotoxic effect on B16F10 cell viability [1]: Neither compound exhibited a significant cytotoxic effect
ratio of glycosylated tyrosinase to total tyrosinase [2]: significantly reduced
MITF protein levels (MITF in B16F10 cells; high concentrations (10–20 µM)): significantly and dose-dependently reduced MITF protein levels
MITF protein levels (MITF in B16F10 cells; low concentrations (2–5 μM)): MITF protein levels increased
mRNA expression levels of the three MITF target genes (TRP-1, TRP-2, tyrosinase) [3]: significantly and concentration-dependently suppressed
ABTS radical scavenging activity (in words) [4]: potently scavenged the ABTS radical
ABTS free radical scavenged (%) ([4]; 734 nm): 75%
melting point: 236.2 to 238.2 °C
